In patent US20040077540A1, “Compositions and methods for modulating physiology of epithelial junctional adhesion molecules for enhanced mucosal delivery of therapeutic compounds” (Nastech Pharmaceutical Company Inc., priority 2002, published 2004):

Test system: EpiAirway™ Cell Membrane (mucosal epithelial cell layer)
Assay: Transepithelial electrical resistance (TER) assay in EpiAirway Cell Membrane
Assay type: cell-based
Conditions: for Average TER Value: permeabilizing peptide 1.0 mM on EpiAirway Cell Membrane, each group of lines has its own CONTROL; for TER % of Control: permeabilizing peptide 1.0 mM, control normalized to 100, decrease = increased permeability
Method: The EpiAirway™ system was developed by MatTek Corp (Ashland, Mass.) as a model of the pseudostratified epithelium lining the respiratory tract. The epithelial cells are grown on porous membrane-bottomed cell culture inserts at an air-liquid interface, which results in differentiation of the cells to a highly polarized morphology. The apical surface is ciliated with a microvillous ultrastructure and the epithelium produces mucus (the presence of mucin has been confirmed by immunoblotting). The inserts have a diameter of 0.875 cm, providing a surface area of 0.6 cm^2. The cells are plated onto the inserts at the factory approximately three weeks before shipping. One “kit” consists of 24 units.
A. On arrival, the units are placed onto sterile supports in 6-well microplates. Each well receives 5 mL of proprietary culture medium. This DMEM-based medium is serum free but is supplemented with epidermal growth factor and other factors. […] The 5 mL volume is just sufficient to provide contact to the bottoms of the units on their stands, but the apical surface of the epithelium is allowed to remain in direct contact with air. Sterile tweezers are used in this step and in all subsequent steps involving transfer of units to liquid-containing wells to ensure that no air is trapped between the bottoms of the units and the medium.
B. The units in their plates are maintained at 37° C. in an incubator in an atmosphere of 5% CO2 in air for 24 hours. At the end of this time the medium is replaced with fresh medium and the units are returned to the incubator for another 24 hours.
A. A “kit” of 24 EpiAirway™ units can routinely be employed for evaluating five different formulations, each of which is applied to quadruplicate wells. Each well is employed for determination of permeation kinetics (4 time points), transepithelial electrical resistance (TER), mitochondrial reductase activity as measured by MTT reduction, and cytolysis as measured by release of LDH. An additional set of wells is employed as controls, which are sham treated during determination of permeation kinetics, but are otherwise handled identically to the test sample-containing units for determinations of transepithelial resistance and viability. The determinations on the controls are routinely also made on quadruplicate units, but occasionally we have employed triplicate units for the controls and have dedicated the remaining […] units in the kit to measurements of transepithelial resistance and viability on untreated units or we have frozen and thawed the units for determinations of total LDH levels to serve as a reference for 100% cytolysis.
A. Respiratory airway epithelial cells form tight junctions in vivo as well as in vitro, and thereby restrict the flow of solutes across the tissue. These junctions confer a transepithelial resistance of several hundred ohms×cm^2 in excised airway tissues. In the MatTek EpiAirway™ units, the transepithelial electrical resistance (TER) is reported by the manufacturer to be routinely around 1000 ohms×cm^2. […] The porous membrane-bottomed units without cells, conversely, provide only minimal transmembrane resistance (approximately 5-20 ohms×cm^2).
B. Accurate determinations of TER require that the electrodes of the ohmmeter be positioned over a significant surface area above and below the membrane, and that the distance of the electrodes from the membrane be reproducibly controlled. The method for TER determination recommended by MatTek and employed for all experiments herein employs an “EVOM”™ epithelial voltohmmeter and an “ENDOHM”™ tissue resistance measurement chamber from World Precision Instruments, Inc., Sarasota, Fla.
C. The chamber is initially filled with Dulbecco's phosphate buffered saline (PBS) for at least 20 minutes prior to TER determinations in order to equilibrate the electrodes.
D. Determinations of TER are made with 1.5 mL of PBS in the chamber and 350 μL of PBS in the membrane-bottomed unit being measured. […]

“SVTVHSSEP [NP-1, JAM-1 extracellular domain]” was tested, and the “Average TER Value” was 606 ± 130 ohms-cm^2 and the “TER % of Control” value was 115.0%.
For “LVCYNNKIT [NP-13, JAM-1 extracellular domain]”, the “Average TER Value” was 288 ± 51 ohms-cm^2 and the “TER % of Control” value was 93.5%.
For “NIWEGLWMNC [NP-34, Claudin-3: 1st extracellular domain]”, the “Average TER Value” was 297 ± 40 ohms-cm^2 and the “TER % of Control” value was 65.0%.
For “ATHSTGITQC [NP-44, Claudin-2: 1st extracellular domain]”, the “Average TER Value” was 464 ± 61 ohms-cm^2 and the “TER % of Control” value was 134.1%.
In the case of “GYGYGYGYG [NP-4, Occludin: 1st extracellular domain]”, the “Average TER Value” is reported as 500 ± 42 ohms-cm^2 and the “TER % of Control” value is reported as 94.9%.
In the case of “NRIVQEFYDP [NP-11, Claudin-1: 2nd extracellular domain]”, the “Average TER Value” is reported as 292 ± 20 ohms-cm^2 and the “TER % of Control” value is reported as 94.8%.
For “GGSVGYPYG [NP-39, Occludin: 1st extracellular domain]”, the “Average TER Value” was 442 ± 185 ohms-cm^2 and the “TER % of Control” value was 127.7%.
“IVVREFYDPS [NP-14, Claudin-5: 2nd extracellular domain]” was tested, and the “Average TER Value” was 286 ± 56 ohms-cm^2 and the “TER % of Control” value was 92.9%.
In the case of “VVQSTGHMQC [NP-16, Claudin-5: 1st extracellular domain]”, the “Average TER Value” is reported as 386 ± 44 ohms-cm^2 and the “TER % of Control” value is reported as 104.3%.
In the case of “VSQSTGQIQC [NP-18, Claudin-1: 1st extracellular domain]”, the “Average TER Value” is reported as 439 ± 145 ohms-cm^2 and the “TER % of Control” value is reported as 118.6%.
With “KVYDSLLALP [NP-7, Claudin-3: 1st extracellular domain]” the “Average TER Value” was 811 ± 87 ohms-cm^2 and the “TER % of Control” value was 153.9%.
With “FIGSNIITSQ [NP-37, Claudin-3: 1st extracellular domain]” the “Average TER Value” was 304 ± 41 ohms-cm^2 and the “TER % of Control” value was 66.5%.
In the case of “TTWLGLWMSC [NP-45, Claudin-1: 1st extracellular domain]”, the “Average TER Value” is reported as 456 ± 162 ohms-cm^2 and the “TER % of Control” value is reported as 131.8%.
With “FLDHNIVTAQ [NP-20, Claudin-5: 1st extracellular domain]” the “Average TER Value” was 341 ± 31 ohms-cm^2 and the “TER % of Control” value was 92.2%.
With “VSEEGGNSY [NP-12, JAM-1 extracellular domain]” the “Average TER Value” was 279 ± 27 ohms-cm^2 and the “TER % of Control” value was 90.6%.
In the case of “GSGFGSYGS [NP-5, Occludin: 1st extracellular domain]”, the “Average TER Value” is reported as 520 ± 134 ohms-cm^2 and the “TER % of Control” value is reported as 98.7%.
For “FIGSNIVTSQ [NP-35, Claudin-4: 1st extracellular domain]”, the “Average TER Value” was 298 ± 56 ohms-cm^2 and the “TER % of Control” value was 65.2%.
With “DRGYGTSLL [NP-3, Occludin: 1st extracellular domain]” the “Average TER Value” was 766 ± 94 ohms-cm^2 and the “TER % of Control” value was 145.4%.
For “TIWEGLWMNC [NP-40, Claudin-4: 1st extracellular domain]”, the “Average TER Value” was 457 ± 146 ohms-cm^2 and the “TER % of Control” value was 100.0%.
In the case of “YVGASIVTAV [NP-19, Claudin-2: 1st extracellular domain]”, the “Average TER Value” is reported as 374 ± 57 ohms-cm^2 and the “TER % of Control” value is reported as 101.1%.
“KVFDSLLNLS [NP-2, Claudin-1: 1st extracellular domain]” was tested, and the “Average TER Value” was 709 ± 28 ohms-cm^2 and the “TER % of Control” value was 134.5%.
With “KFDQGDTTR [NP-6, JAM-1 extracellular domain]” the “Average TER Value” was 793 ± 44 ohms-cm^2 and the “TER % of Control” value was 150.5%.
In the case of “AMYEGLWMSC [NP-38, Claudin-1 1st extracellular domain]”, the “Average TER Value” is reported as 291 ± 89 ohms-cm^2 and the “TER % of Control” value is reported as 63.7%.
“YGYGGYTDP [NP-15, Occludin: 1st extracellular domain]” was tested, and the “Average TER Value” was 383 ± 79 ohms-cm^2 and the “TER % of Control” value was 103.5%.
With “VVQSTGQMQC [NP-36, Claudin-3: 1st extracellular domain]” the “Average TER Value” was 306 ± 58 ohms-cm^2 and the “TER % of Control” value was 67.0%.
“GEVKVKLIV [NP-9, JAM-1 extracellular domain]” was tested, and the “Average TER Value” was 342 ± 185 ohms-cm^2 and the “TER % of Control” value was 92.4%.
For “KVYDSVLALS [NP-43, Claudin-5: 1st extracellular domain]”, the “Average TER Value” was 446 ± 85 ohms-cm^2 and the “TER % of Control” value was 128.9%.
